Experiments:
ID1-E47 = target: T1, ID1-E47 (Homo sapiens, UniProt P41134); assay: Immunoprecipitation of endogenous ID1 and E47 in HCT116 cells; format: cell-based; settings: 60 μM, one hour
T1 construct: host or cells: HCT116
Experimental: Immunoprecipitation. Cells were lysed in NP40 lysis buffer (50 mM Tris-HCl, pH 7.5, 150 mM NaCl, 1 mM EDTA, 1% NP40, 1.5 mM Na3VO4, 50 mM sodium fluoride, 10 mM sodium pyrophosphate, 10 mM P-glycerolphosphate and EDTA free protease inhibitor cocktail (Roche)) or RIPA buffer (50 mM Tris-HCl, pH 7.5, 150 mM NaCl, 1 mM EDTA, 1% NP40, 0.5% Sodium Deoxycholate, 0.1% Sodium dodecyl sulfate, 1.5 mM Na3VO4, 50 mM sodium fluoride, 10 mM sodium pyrophosphate, 10 mM P-glycerolphosphate and EDTA free protease inhibitor cocktail (Roche)). Lysates were cleared by centrifuge at 15,000 rpm for 15 minutes at 4° C. For immunoprecipitation, cell lysates were incubated with primary antibody (FLAG M2 affinity gel, Sigma, F2426; ID1 (C-20), Santa Cruz, sc-488; E2A (N-649), Santa Cruz, sc-763) and protein G/A beads (Santa Cruz, sc-2003) at 4° C. overnight. Beads were washed with lysis buffer four times and eluted in 2×SDS sample buffer. Protein samples were separated by SDS-PAGE and transferred to a polyvinylidene fluoride (PVDF) membrane. Membranes were blocked in TBS containing 5% non-fat milk and 0.1% Tween20, and probed with primary antibodies. […]

MDA-MB-231 = assay: MTT assay, MDA-MB-231; format: cell-based; set-up: scale not given here; settings: MDA-MB-231, TNBC cell line, 24 hours
Excerpt: The 4T1 murine mammary tumor cell line and nine breast cancer cell lines representing the major breast cancer subtypes (ER+, HER2+, and TNBC) including MDA-MB-157, MDA-MB-436, MDA-MB-231, MDA-MB-453, MDA-MB-361, BT-474, SK-BR-3, MCF-7 and T47-D will be grown in RPMI or DMEM (Dulbecco's Modified Eagle Medium) media supplemented with 10% FBS (fetal bovine serum), 1% penicillin-streptomycin and 1% L-Glutamine. Patient derived xenograft cell lines BR7, BR11, and IBT will be established directly from breast cancer bone metastases specimens surgically resected from patients with informed consent. BR7 and BR11 specimens will be obtained from ER positive (HER2 negative and PR negative) metastatic breast cancer patients, while the IBT specimen will be obtained from a metastatic, triple negative breast cancer patient. Fresh tumor tissues will be quickly washed with ice cold PBS and minced into about 1-3 mm pieces in MEM medium (without FBS) using sterile razor blades. […] The cells will be treated with either 100 μM DMSO, AGX51, or a compound of the present technology such as AGX-A. The cell morphology and growth will be monitored daily for 1 week by microscopy for changes in morphology or cell death. […] Absorbance will then measured at 570 nm using a plate reader (Synergy 2, BioTek). […]

[1] = 14-day toxicity study, i.p.; format: in vivo; settings: 60 mg/kg bid i.p., 14 days
Experimental: Toxicity analyses. To assess for toxicity, female athymic nude mice (Envigo), age 6-8 weeks, were dosed i.p. with either a control vehicle (70% DMSO in water) or AGX51 at 60 mg/kg twice daily for 14 consecutive days. Mice were sacrificed 24 hours after the last test administration. Gross and complete necropsy, along with clinical pathology analysis was conducted on all mice. Clinical Chemistry parameters measured were: BUN, Creatine, ALP, ALT, AST, GGT, Bilirubin, Total Protein, Albumin, Globulin, Phosphorus, Glucose, Cholesterol, Phosphorus, Calcium, Sodium, Potassium, Chloride. Hematology parameters measured were: white blood cells (lymphocytes, Monocytes, Eosinophils, Basophils, Neutrophils), red blood cells, Hemoglobin, Hematocrit, MCV, MCH, MCHC, RDW, Platelets. Organs/Tissues analyzed were: Lung, heart, thymus, kidneys, liver, spleen, gall bladder, pancreas, duodenum, jejunum, ileum, cecum, colon, bone marrow, femur, tibia, sternum, brain, eyes, ears, nasal and oral cavities, teeth, mesenteric and tracheal lymph nodes.

[2] = system: cholangiocarcinoma cells (SNU1079, SNU1196); assay: AGX-A cyclodextrin formulations on cholangiocarcinoma cells (24 hour cell viability); format: cell-based
Experimental: To overcome the issue DMSO posed, investigations were performed to develop a formulation that was compatible with AGX-A as well as well-suited for administration.
Ultimately, a particularly efficacious formulation employing 2-hydroxypropyl-β-cyclodextrin (“HPBCD”) was discovered. […] Representative data is illustrated in FIGS. 25A-25B which provide the results of 24 hour cell viability studies for SNU1079 cells and SNU1196 cells, respectively.

T1 sequence (P41134 whole entry): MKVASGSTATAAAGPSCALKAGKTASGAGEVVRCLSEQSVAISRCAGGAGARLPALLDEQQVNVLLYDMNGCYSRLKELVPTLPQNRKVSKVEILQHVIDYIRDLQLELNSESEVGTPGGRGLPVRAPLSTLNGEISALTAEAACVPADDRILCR

| Compound | co-precipitated ID1/E47 proteins (ID1-E47) | percentage at 60 μM (IC50 NA) (MDA-MB-231) | clinical chemistry parameters and hematology [1] | gross necropsy and histopathological evaluation of all major organs [1] | weight loss [1] | AGX-A activity against cholangiocarcinoma cells ([2]; aqueous solution with HPBCD, 24 hour) | AGX-A induced cell death ([2]; formulations with sulfobutylether-β-cyclodextrin (CAPTISOL)) |
| --- | --- | --- | --- | --- | --- | --- | --- |
| CCC(=O)N(CCC(c1ccc2c(c1)OCO2)c1ccccc1OC)Cc1ccccc1 (racemic) [AGX51, N-(3-(benzo[d][1,3]dioxol-5-yl)-3-(2-methoxyphenyl)propyl)-N-benzylpropionamide] | markedly reduced the levels of the co-precipitated proteins | NA (60 μM = 70%) | within normal limits | No abnormal findings | no significant weight loss |  |  |
| COc1ccccc1C(CCNCc1ccccc1)c1ccc(OC(C)C)cc1 (stereo not shown) [AGX-A, N-benzyl-3-(4-isopropoxyphenyl)-3-(2-methoxyphenyl)propan-1-anine] |  |  |  |  |  | preserving AGX-A activity | neutralized AGX-A induced cell death |

Reference: US20220356163A1, “SMALL MOLECULE INHIBITORS OF Id PROTEINS” (MEMORIAL SLOAN KETTERING CANCER CENTER, priority 2019, published 2022)
